Where a name gives a salt, the structure may show the parent alone. Read-outs that look alike come from different tables or passages of the source. Blank lines part the entries; values can stand above or below the compound they belong to.
Key:
[1] = test system: CD-1 mouse whole blood cells; test: deacetylase activity in serum from mouse whole blood contacted with substrate; assay type: cell-based; conditions: 300 uM substrate
Method: CD-1 Mouse blood was collected in heparin tubes and cells were counted by Coulter counter (Beckman Coulter, Ville St. Laurent, Quebec). The amount of whole blood containing 1.6×10E6 white blood cells was aliquoted and the volume was brought up to 200 ul with RPMI (+10% FBS). Boc-Ac-Lys-AMC was added to a final concentration of 300 uM. After various amounts of time, the mix was spun (400×g for 5 min), and 50 ul of the supernatant (serum) was transferred to a 96-well plate. The amount of deacetylated product Boc-Lys-AMC present in the supernatant was detected by adding an equal volume of the developer mix and reading after 15 minutes incubation. […] Thus total HDAC activity in primary cells could be easily monitored in bodily fluid where animals were contacted with HDAC substrates ex vivo.

[2] = test system: HCT116; test: whole cell deacetylase assay with Boc-Lys(Ac)-AMC in HCT116 cells
Method: (§2) Freshly trypsinized cells were dispensed into 96-well black Costar E1A/RIA plates (Corning Inc., Corning, N.Y.). Small molecule substrate Boc-Lys(Ac)-AMC (Bachem Biosciences Inc., King of Prussia, Philadelphia) was added to cell suspension with the final concentration of 300 uM. Cells were placed in 37° C. incubator with 5% CO2 for 90 minutes. […] With the presence of 1% NP-40, both excellular and intracellular HDAC activity was measured in cultured cells altogether. Fluorescence was developed for 15 minutes at 37 C and read in a fluorometer (SPECTRAMAX GeminiXS, Molecular Devices, Sunnylvale, Calif.) with an excitation wavelength at 360 nm, emission at 470 nm, and a cutoff of 435 nm.

[3] = test system: A549; test: whole cell deacetylase assay with Boc-Lys(Ac)-AMC in A549 cells
Method: as §2

[4] = test system: Panc-1; test: whole cell deacetylase assay with Boc-Lys(Ac)-AMC in Panc-1 cells; conditions: read-out: whole cell deacetylase IC50, Panc-1, pre-incubated with inhibitor 16 hours, Boc-Lys(Ac)-AMC substrate, mean of at least 2 experiments
Method: as §2

[5] = test system: Jurkat T; test: whole cell deacetylase assay with Boc-Lys(Ac)-AMC in Jurkat T cells; conditions: read-out: whole cell deacetylase IC50, Jurkat T
Method: as §2

[6] = test system: Du145; test: whole cell deacetylase assay with Boc-Lys(Ac)-AMC in Du145 cells
Method: as §2

[7] = test system: 293T; test: whole cell deacetylase assay with Boc-Lys(Ac)-AMC in 293T cells; conditions: read-out: whole cell deacetylase IC50, 293T
Method: as §2

[8] = test system: Class I and Class II HDACs; test: enzymatic reactivity of substrates for Class I and Class II HDACs; assay type: biochemical; conditions: FIG. 12 legend
Method: (§1) A 30 mM stock of Boc-Lys(TFA)-AMC substrate was prepared in DMSO. 2 μl test compound in DMSO was diluted in 50 μl buffer (25 mM HEPES, pH 8.0, 137 mM NaCl, 2.7 mM KCl, 1 mM MgCl2, 0.1% BSA) and pre-incubated with Class II HDAC enzyme (30 μl of a final enzyme concentration of 0.1-0.2 nM) for 10 minutes at room temperature. Reaction was started by adding 18 μl Boc-Lys(TFA)-AMC substrate and incubating at 37° C. for 20-30 minutes. The reaction was stopped by adding 50 μl trypsin (1 mg/ml) and a known HDAC inhibitor. The plate was then incubated in the dark for 20 minutes at room temperature and read with Ex=360 nm, Em=470 nm, cutoff filter at 435 nm.
as §1, with “of Boc-Lys(thioAc)-AMC” for “of Boc-Lys(TFA)-AMC”, “in 15” for “in 50”, “enzyme (15” for “enzyme (30”, “of 50-500” for “of 0.1-0.2”, “μl Boc-Lys(thioAc)-AMC” for “μl Boc-Lys(TFA)-AMC”, “for 30-60” for “for 20-30”

[9] = test system: total HDAC activity in human white blood cells; test: ex vivo inhibition of whole cell HDAC activity in human white blood cells; assay type: cell-based; conditions: 16 hours incubation; Boc-Lys(ac)-AMC substrate
Method: Whole blood (human or mouse) was centrifuged at 2500 rpm for 10 minutes at ambient temperature in a Sorvall RT-7 centrifuge (Mandel Scientific Co., Guelph, Ontario). Plasma was removed and buffy coat was collected. Five volumes of Erythrocyte Lysis Buffer (EL) (Qiagen Canada Inc., Mississauga, Ontario) were added to buffy coat. Buffy coat was incubated on ice for 20 minutes before it was centrifuged at 400 g for 10 minutes at 4° C. Supernatant was removed and buffy coat was washed twice with EL buffer and re-centrifugation. Buffy coat was resuspended in RPMI media and cells (white blood cells) were counted with trypan blue exclusion. White blood cells were plated into 96-well dish in RPMI plus 10% fetal bovine serum. HDAC small molecule substrate Boc-Lys(ac)-AMC was added to cell suspensions and incubated with cells for 90 minutes at 37° C. before reaction was stopped, and fluorescence was developed and read.
Human white blood cells (buffy coat) isolated from human donors were plated into 96-well dish in RPMI plus 10% fetal bovine serum. HDAC inhibitors with a range of dilutions were incubated with cells for 16 hours at 37 C with 5% CO2. HDAC small molecule substrate Boc-Lys(ac)-AMC was added into cell suspensions and incubated with cells for 90 minutes before reaction was stopped, and fluorescence was developed and read.

[10] = test system: 293T cells; test: intracellular and excellular deacetylase activity of 293T cells; assay type: cell-based, human; conditions: 300 uM substrate
Method: Freshly trypsinized cells (293T) were dispensed into 96-well black Costar E1A/RIA plates (Corning Inc., Corning, N.Y.). Small molecule substrate Boc-Lys(Ac)-AMC (Bachem Biosciences Inc., King of Prussia, Philadelphia) were added to cell suspension with the final concentration of 300 uM. Cells were placed in 37° C. incubator with 5% CO2 for indicated time period. Supernatant was collected if necessary and subject to spinning. Reaction was stopped by adding a freshly prepared Fluor-de-Lys™ developer (Biomol, Plymouth Meeting, Philadelphia) with 1 uM TSA (Biomol, Plymouth Meeting, Philadelphia) in assay buffer (25 mM Tris, HCl pH8.0, 137 mM NaCl, 2.7 mM KCl, 1 mM MgCl2) plus 1% NP-40 into supernatant or cell pellets. Fluorescence was developed for 15 minutes at 37° C. and read in a fluorometer (SPECTRAMAX GeminiXS, Molecular Devices, Sunnylvale, Calif.) with an excitation wavelength at 360 nm, emission at 470 nm, and a cutoff of 435 nm. […] In contrast, when there is no substrates added, neither supernatant from cultured cells nor cell pellets have HDAC activity.

cell permeability [1]: permeable to come out from cells
Compound: Cc1cc(=O)oc2cc(NC(=O)[C@H](CCCCN)NC(=O)OC(C)(C)C)ccc12 [Boc-Lys-AMC]

IC50 ([2]; read-out: whole cell deacetylase IC50, HCT116, HCT116 cells, pre-incubated with inhibitor 16 hours, Boc-Lys(Ac)-AMC substrate, mean of at least 2 experiments): 3000 nM | IC50 ([3]; read-out: whole cell deacetylase IC50, A549, A549 cells, pre-incubated with inhibitor 16 hours, Boc-Lys(Ac)-AMC substrate, mean of at least 2 experiments): 400 nM | IC50 [4]: 500 nM | IC50 ([5]; Jurkat T cells, pre-incubated with inhibitor 16 hours, Boc-Lys(Ac)-AMC substrate, mean of at least 2 experiments): 300 nM | IC50 ([6]; read-out: whole cell deacetylase IC50, Du145, Du145 cells, pre-incubated with inhibitor 16 hours, Boc-Lys(Ac)-AMC substrate, mean of at least 2 experiments): 300 nM
Compound: Nc1ccccc1NC(=O)c1ccc(CNC(=O)OCc2cccnc2)cc1 [MS-275]
IC50 ([7]; 293T cells, pre-incubated with inhibitor 16 hours, Boc-Lys(Ac)-AMC substrate, mean of at least 2 experiments): 2000 nM

Compound: CC(=O)O[C@H]1C(=O)[C@@]2(C)[C@H]([C@H](OC(=O)c3ccccc3)[C@]3(O)C[C@H](OC(=O)[C@H](O)[C@@H](NC(=O)c4ccccc4)c4ccccc4)C(C)=C1C3(C)C)[C@]1(OC(C)=O)CO[C@@H]1C[C@@H]2O [Taxol]
IC50 ([7]; Homo sapiens, HEK-293T): > 50000 nM

Compound: CC(=S)NCCCCC(NC(=O)OC(C)(C)C)C(=O)Nc1ccc2c(C)cc(=O)oc2c1 (stereo not shown) [Boc-Lys(thioAc)-AMC]
HDAC class specificity of substrate [8]: specific for Class II HDACs

IC50 ([2]; Homo sapiens, HCT-116, read-out: whole cell deacetylase IC50, HCT116): 60 nM | IC50 ([3]; Homo sapiens, A549, read-out: whole cell deacetylase IC50, A549): 20 nM | IC50 ([5]; Homo sapiens, Jurkat): 40 nM | IC50 ([6]; Homo sapiens, DU-145, read-out: whole cell deacetylase IC50, Du145): 50 nM
Compound: O=C(/C=C/c1ccc(CN(CCO)CCc2c[nH]c3ccccc23)cc1)NO [LAQ-824]
inhibition of whole cell HDAC activity in human white blood cells [9]: dose-dependent inhibition | IC50 ([7]; Homo sapiens, HEK-293T): 40 nM

Compound: CC(=O)NCCCC[C@H](NC(=O)OC(C)(C)C)C(=O)Nc1ccc2c(C)cc(=O)oc2c1 [Boc-Lys(Ac)-AMC]
cell permeability [1]: permeable to go inside cells | cell permeability [10]: could permeablize into cells | HDAC class specificity of substrate [8]: specific for Class I HDACs, especially HDAC1, HDAC2 and HDAC6

Compound: Cc1cc(=O)oc2cc(NC(=O)[C@H](CCCCNC(=O)C(F)(F)F)NC(=O)OC(C)(C)C)ccc12 [Boc-Lys(Tfa)-AMC]
HDAC class specificity of substrate [8]: specific for Class II HDACs
